Measured values published in patent publication US20260184707A1, “PHARMACEUTICAL COMPOUNDS FOR THE TREATMENT OF COMPLEMENT MEDIATED DISORDERS” (ALEXION PHARMACEUTICALS, INC., priority 2022, published 2026).

Each compound was assayed against T1, Human complement C1s enzyme (Homo sapiens, UniProt P09871) (assay: Human C1s enzyme assay). Settings: human complement C1s enzyme 1.16 nM, substrate Z-L-Lys-SBzl, A405; read-out: IC50 (Stars).
T1 construct: purified from human serum, Complement Technology, Inc; purchased Complement Technology, Inc; host or cells: human serum (plasma-derived native protein)
T1 sequence (P09871 438-688 limits assumed): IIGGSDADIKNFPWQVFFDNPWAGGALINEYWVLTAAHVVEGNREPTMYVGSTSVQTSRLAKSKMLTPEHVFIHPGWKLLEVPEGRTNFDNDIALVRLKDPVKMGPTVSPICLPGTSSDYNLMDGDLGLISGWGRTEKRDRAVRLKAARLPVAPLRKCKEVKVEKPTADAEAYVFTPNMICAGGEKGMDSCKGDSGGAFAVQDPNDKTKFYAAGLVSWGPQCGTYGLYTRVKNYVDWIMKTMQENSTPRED
T1 sequence (P09871 16-437 partner limits assumed): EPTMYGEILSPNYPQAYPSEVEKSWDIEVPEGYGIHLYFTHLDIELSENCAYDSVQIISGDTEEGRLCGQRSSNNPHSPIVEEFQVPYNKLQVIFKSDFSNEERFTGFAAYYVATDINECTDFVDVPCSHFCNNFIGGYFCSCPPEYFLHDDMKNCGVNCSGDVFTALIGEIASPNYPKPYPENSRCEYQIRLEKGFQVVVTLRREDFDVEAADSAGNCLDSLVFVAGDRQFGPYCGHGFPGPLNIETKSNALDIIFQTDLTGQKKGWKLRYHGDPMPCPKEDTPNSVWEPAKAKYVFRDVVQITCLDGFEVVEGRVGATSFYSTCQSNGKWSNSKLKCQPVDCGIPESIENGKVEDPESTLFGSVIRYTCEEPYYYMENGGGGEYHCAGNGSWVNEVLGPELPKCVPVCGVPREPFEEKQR
Type: biochemical
In short: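 Serum-purified human C1s (1.16 nM final) preincubated 5 min at room temperature with compound in 50 mM Tris, 1 M NaCl, pH 7.5. Z-L-Lys-SBzl and DTNB added at 100 μM each; A405 recorded every 30 s. IC50 from nonlinear regression of reaction rates versus compound concentration.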

Row | IC50 [nM] | SMILES
1 | 100 to 1000 | CC(C)(Nc1cnc(-c2ccccc2F)n(CC(=O)NCc2cc3cnccc3[nH]2)c1=O)c1ccc2oc3ccccc3c2c1 [Compound 311, N-((1H-pyrrolo[3,2-c]pyridine-2-yl)methyl)-2-(5-((2-(dibenzo[b,d]furan-2-yl)propan-2-yl)amino)-2-(2-fluorophenyl)-6-oxopyrimidin-1(6H)-yl)acetamide]
2 | < 100 | O=C(Cn1c(-c2ccccc2F)ncc(NC2(c3ccc4oc5ccccc5c4c3)CC2)c1=O)NCc1cc2cnccc2[nH]1 [Compound 403, N-((1H-pyrrolo[3,2-c]pyridine-2-yl)methyl)-2-(5-((1-(dibenzo[b,d]furan-2-yl)cyclopropyl)amino)-2-(2-fluorophenyl)-6-oxopyrimidin-1(6H)-yl)acetamide]
3 | < 100 | O=C(Cn1c(-c2ccccc2F)ncc(N[C@H](CO)c2ccc3oc4ccccc4c3c2)c1=O)NCc1cc2cnccc2[nH]1 [Compound 433, (S)—N-((1H-Pyrrolo[3,2-c]pyridine-2-yl)methyl)-2-(5-((1-(dibenzo[b,d]furan-2-yl)-2-hydroxyethyl)amino)-2-(2-fluorophenyl)-6-oxopyrimidin-1(6H)-yl)acetamide]
4 | < 100 | O=C(Cn1c(-c2ccncc2)ncc(NCc2ccc3oc4ccccc4c3c2)c1=O)NCc1cc2cnccc2[nH]1 [Compound 289, N-((1H-pyrrolo[3,2-c]pyridin-2-yl)methyl)-2-(5-((dibenzo [b,d]furan-2-ylmethyl)amino)-6-oxo-2-(pyridin-4-yl)pyrimi-din-1(6H)-yl)acetamide]
5 | < 100 | CS(=O)(=O)c1ccc(-c2ncc(NCc3ccc4oc5ccccc5c4c3)c(=O)n2CC(=O)NCc2cc3cnccc3[nH]2)cc1 [Compound 134, N-((1H-pyrrolo[3,2-c]pyridin-2-yl)methyl)-2-(5-((dibenzo [b,d]furan-2-ylmethyl)amino)-2-(4-(methylsulfonyl)phenyl)-6-oxopyrimidin-1(6H)-yl)-acetamide]
6 | < 100 | O=C(Cn1c(-c2ccc(C(F)(F)F)cc2)ncc(NCc2ccc3oc4ccccc4c3c2)c1=O)NCc1cc2cnccc2[nH]1 [Compound 135, N-((1H-pyrrolo[3,2-c]pyridin-2-yl)methyl)-2-(5-((dibenzo [b,d]furan-2-ylmethyl)amino)-6-oxo-2-(4-(trifluoromethyl)-phenyl)pyrimidin-1(6H)-yl)-acetamide]
7 | < 100 | O=C(Cn1c(-c2ccc(OCc3ccccc3)cc2)ncc(NCc2ccc3oc4ccccc4c3c2)c1=O)NCc1cc2cnccc2[nH]1 [Compound 155, N-((1H-pyrrolo[3,2-c]pyridin-2-yl)methyl)-2-(2-(4-(benzyl-oxy)phenyl)-5-((dibenzo[b,d]furan-2-ylmethyl)amino)-6-oxopyrimidin-1(6H)-yl)acet-amide]

More lines, now with the values behind:

Row | SMILES | IC50 [nM]
8 | O=C(Cn1c(-c2ccccc2)ncc(NC(=O)C23CC(c4ccccc4)(C2)C3)c1=O)NCc1cc2cnccc2[nH]1 [Compound 243, N-(1-(2-(((1H-pyrrolo[3,2-c]pyridin-2-yl)methyl)amino)-2-oxoethyl)-6-oxo-2-phenyl-1,6-dihydropyrimidin-5-yl)-3-phenylbicyclo[1.1.1]pentane-1-carboxamide] | 100 to 1000
9 | O=C(Cn1c(-c2ccccc2)ncc(NCCCCCc2ccccc2)c1=O)NCc1cc2cnccc2[nH]1 [Compound 3, N-((1H-pyrrolo[3,2-c]pyridin-2-yl)methyl)-2-(6-oxo-2-phen-yl-5-((5-phenylpentyl)amino)-pyrimidin-1(6H)-yl)acetamide] | < 100
10 | O=C(Cn1c(-c2ccccc2)ncc(NCCCc2ccccc2)c1=O)N[C@H](CO)c1cc2cnccc2[nH]1 [Compound 15, (S)-N-(2-hydroxy-1-(1H-pyr-rolo[3,2-c]pyridin-2-yl)ethyl)-2-(6-oxo-2-phenyl-5-((3-phen-ylpropyl)amino)pyrimidin-1(6H)-yl)acetamide] | > 1000
11 | COc1ccc(CCCNc2cnc(-c3ccccc3)n(CC(=O)NCc3cc4cnccc4[nH]3)c2=O)cc1 [Compound 45, N-((1H-pyrrolo[3,2-c]pyridin-2-yl)methyl)-2-(5-((3-(4-methoxyphenyl)propyl)amino)-6-oxo-2-phenylpyrimidin-1(6H)-yl)acetamide] | < 100
12 | O=C(Cn1c(-c2ccccc2)ncc(NC(=O)c2ccc3c(c2)C(F)(F)c2ccccc2-3)c1=O)NCc1cc2cnccc2[nH]1 [Compound 204, N-(1-(2-(((1H-pyrrolo[3,2-c]pyridin-2-yl)methyl)amino)-2-oxoethyl)-6-oxo-2-phenyl-1,6-dihydropyrimidin-5-yl)-9,9-difluoro-9H-fluorene-2-carbox-amide] | < 100
13 | Cc1ccccc1-c1ncc(N[C@H](C)c2ccc3oc4ccccc4c3c2)c(=O)n1CC(=O)NCc1cc2cnccc2[nH]1 [Compound 356, 2-[5-[[(1R)-1-dibenzofuran-2-ylethyl]amino]-2-(o-tolyl)-6-oxo-pyrimidin-1-yl]-N-(1H-pyrrolo[3,2-c]pyridine-2-ylmethyl)acetamide] | > 1000
14 | O=C(Cn1c(-c2ccccc2)cnc(NC(=O)c2ccc(-c3ccccc3)cc2)c1=O)NCc1cc2cnccc2[nH]1 [Compound 100, N-(4-(2-(((1H-pyrrolo[3,2-c]pyridin-2-yl)methyl)amino)-2-oxoethyl)-3-oxo-5-phenyl-3,4-dihydropyrazin-2-yl)-[1,1′-biphenyl]-4-carboxamide] | < 100
15 | O=C(Cn1c(-c2ccccc2)ncc(N2CCn3c(nnc3C(F)(F)F)C2)c1=O)NCc1cc2cnccc2[nH]1 [Compound 44, N-((1H-pyrrolo[3,2-c]pyridin-2-yl)methyl)-2-(6-oxo-2-phen-yl-5-(3-(trifluoromethyl)-5,6-dihydro-[1,2,4]triazolo[4,3-a]pyrazin-7(8H)-yl)pyrimidin-1(6H)-yl)acetamide] | 100 to 1000
16 | C[C@@H](Nc1cnc(N2CCCCC2)n(CC(=O)NCc2cc3cnccc3[nH]2)c1=O)c1cnc(-c2ccccc2)o1 [Compound 453, (R)—N-((1H-Pyrrolo[3,2-c]pyridine-2-yl)methyl)-2-(6-oxo-5-((1-(2-phenyloxazol-5-yl)ethyl)amino)-2-(piperidin-1-yl)pyrimidin-1(6H)-yl)acetamide] | < 100
17 | C[C@@H](Nc1cnc(N2CC3(CCC3)C2)n(CC(=O)NCc2cc3cnccc3[nH]2)c1=O)c1ccc2oc3ccccc3c2c1 [Compound 373, (R)-N-((1H-pyrrolo[3,2-c]pyridin-2-yl)methyl)-2-(5-((1-(dibenzo[b,d]furan-2-yl)ethyl)-amino)-6-oxo-2-(2-azaspiro [3.3]heptan-2-yl)pyrimidin-1(6H)-yl)acetamide] | > 1000
18 | O=C(NCCOc1nc(-c2ccccc2)ncc1NCc1ccc2oc3ccccc3c2c1)c1cc2cnccc2[nH]1 [Compound 266, N-(2-((5-((dibenzo[b,d]furan-2-ylmethyl)amino)-2-phenyl-pyrimidin-4-yl)oxy)ethyl)-1H-pyrrolo[3,2-c]pyridine-2-carboxamide] | > 1000
19 | O=C(Cn1c(-c2ccccc2)ncc(NCc2cc3ccc2CCc2ccc(cc2)CC3)c1=O)NCc1cc2cnccc2[nH]1 [Compound 43, 2-(5-((1,4(1,4)-dibenzena-cyclohexaphane-1(2)-ylmeth-yl)amino)-6-oxo-2-phenylpyr-imidin-1(6H)-yl)-N-((1H-pyr-rolo[3,2-c]pyridin-2-yl)meth-yl)acetamide] | > 1000
